Here are results for two molecules from patent publication US9452217B2, “Methods for potentiating immune response for the treatment of infectious diseases and cancer” (Nitor Therapeutics, priority 2013, dated 2016).

Assay [1] deals with T1, human TLR4 (Homo sapiens, UniProt O00206+Q9Y6Y9).
T1 construct: expressed in transfected cells; host or cells: HEK293
The assay can be described thus: TLR ligand screening: NF-κB activation (SEAP reporter) in HEK293 cells expressing TLR4. Conditions: one concentration: Guanosine 100 uM, NTR001 10 uM, Inosine 100 uM; FIG. 2. In kind it is cell-based. Here is the method: (§1) Method: TLR stimulation is tested by assessing NF-κB activation in HEK293 cells expressing a given TLR. The Secreted Embryonic Alkaline Phosphatase (SEAP) reporter is under the control of a promoter inducible by the transcription factor NF-κB. This reporter gene allows the monitoring of signaling through the TLR, based on the activation of NF-κB. The compounds are evaluated at one concentration and compared to control ligands. This step is performed in triplicate.

For assay [2], the target named is T2, human TLR2 (Homo sapiens, UniProt O60603).
T2 construct: expressed in transfected cells; host or cells: HEK293
The assay can be described thus: TLR ligand screening: NF-κB activation (SEAP reporter) in HEK293 cells expressing TLR2. Conditions: one concentration: Guanosine 100 uM, NTR001 10 uM, Inosine 100 uM; FIG. 2. In kind it is cell-based. Here is the method: as §1

Assay [3] has as its target T3, human TLR5 (Homo sapiens, UniProt O60602).
T3 construct: expressed in transfected cells; host or cells: HEK293
The assay can be described thus: TLR ligand screening: NF-κB activation (SEAP reporter) in HEK293 cells expressing TLR5. Format: cell-based. Conditions: one concentration: NTR001 10 uM, Inosine 100 uM; FIG. 2. On the procedure:
as §1

For assay [4], the target named is T4, human TLR8 (Homo sapiens, UniProt Q9NR97).
T4 construct: expressed in transfected cells; host or cells: HEK293
T4 sequence (Q9NR97 27-1041): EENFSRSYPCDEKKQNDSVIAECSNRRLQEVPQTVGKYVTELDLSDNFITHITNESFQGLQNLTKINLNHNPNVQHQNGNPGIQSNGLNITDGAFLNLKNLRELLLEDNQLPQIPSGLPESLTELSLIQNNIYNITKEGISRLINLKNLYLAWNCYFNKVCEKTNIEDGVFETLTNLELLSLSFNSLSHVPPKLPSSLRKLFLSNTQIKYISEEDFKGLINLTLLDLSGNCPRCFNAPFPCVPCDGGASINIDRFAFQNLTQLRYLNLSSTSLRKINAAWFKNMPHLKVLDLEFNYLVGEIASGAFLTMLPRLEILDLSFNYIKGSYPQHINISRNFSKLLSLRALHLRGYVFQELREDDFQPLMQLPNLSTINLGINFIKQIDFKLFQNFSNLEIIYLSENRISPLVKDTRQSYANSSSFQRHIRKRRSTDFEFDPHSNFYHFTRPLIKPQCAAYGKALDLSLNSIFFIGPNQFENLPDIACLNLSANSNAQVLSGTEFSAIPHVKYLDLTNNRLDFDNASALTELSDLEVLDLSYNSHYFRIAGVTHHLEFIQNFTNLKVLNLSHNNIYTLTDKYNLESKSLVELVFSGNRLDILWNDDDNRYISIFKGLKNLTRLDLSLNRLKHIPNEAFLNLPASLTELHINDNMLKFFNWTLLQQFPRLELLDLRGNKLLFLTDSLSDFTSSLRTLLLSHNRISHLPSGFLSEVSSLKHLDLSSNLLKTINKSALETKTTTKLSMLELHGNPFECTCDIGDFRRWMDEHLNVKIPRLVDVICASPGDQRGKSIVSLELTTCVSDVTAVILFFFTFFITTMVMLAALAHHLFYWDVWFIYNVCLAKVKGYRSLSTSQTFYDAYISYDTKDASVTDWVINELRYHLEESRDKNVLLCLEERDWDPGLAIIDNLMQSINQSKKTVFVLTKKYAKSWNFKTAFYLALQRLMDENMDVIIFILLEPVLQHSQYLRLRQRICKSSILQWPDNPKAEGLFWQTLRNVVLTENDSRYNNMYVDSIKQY
The assay can be described thus: TLR ligand screening: NF-κB activation (SEAP reporter) in HEK293 cells expressing TLR8. Format: cell-based. Particulars: one concentration: NTR001 10 uM, Inosine 100 uM; FIG. 2. On the procedure: as §1

The target in assay [5] is T5, human TLR9 (Homo sapiens, UniProt Q9NR96).
T5 construct: expressed in transfected cells; host or cells: HEK293
T5 sequence (Q9NR96 26-1032): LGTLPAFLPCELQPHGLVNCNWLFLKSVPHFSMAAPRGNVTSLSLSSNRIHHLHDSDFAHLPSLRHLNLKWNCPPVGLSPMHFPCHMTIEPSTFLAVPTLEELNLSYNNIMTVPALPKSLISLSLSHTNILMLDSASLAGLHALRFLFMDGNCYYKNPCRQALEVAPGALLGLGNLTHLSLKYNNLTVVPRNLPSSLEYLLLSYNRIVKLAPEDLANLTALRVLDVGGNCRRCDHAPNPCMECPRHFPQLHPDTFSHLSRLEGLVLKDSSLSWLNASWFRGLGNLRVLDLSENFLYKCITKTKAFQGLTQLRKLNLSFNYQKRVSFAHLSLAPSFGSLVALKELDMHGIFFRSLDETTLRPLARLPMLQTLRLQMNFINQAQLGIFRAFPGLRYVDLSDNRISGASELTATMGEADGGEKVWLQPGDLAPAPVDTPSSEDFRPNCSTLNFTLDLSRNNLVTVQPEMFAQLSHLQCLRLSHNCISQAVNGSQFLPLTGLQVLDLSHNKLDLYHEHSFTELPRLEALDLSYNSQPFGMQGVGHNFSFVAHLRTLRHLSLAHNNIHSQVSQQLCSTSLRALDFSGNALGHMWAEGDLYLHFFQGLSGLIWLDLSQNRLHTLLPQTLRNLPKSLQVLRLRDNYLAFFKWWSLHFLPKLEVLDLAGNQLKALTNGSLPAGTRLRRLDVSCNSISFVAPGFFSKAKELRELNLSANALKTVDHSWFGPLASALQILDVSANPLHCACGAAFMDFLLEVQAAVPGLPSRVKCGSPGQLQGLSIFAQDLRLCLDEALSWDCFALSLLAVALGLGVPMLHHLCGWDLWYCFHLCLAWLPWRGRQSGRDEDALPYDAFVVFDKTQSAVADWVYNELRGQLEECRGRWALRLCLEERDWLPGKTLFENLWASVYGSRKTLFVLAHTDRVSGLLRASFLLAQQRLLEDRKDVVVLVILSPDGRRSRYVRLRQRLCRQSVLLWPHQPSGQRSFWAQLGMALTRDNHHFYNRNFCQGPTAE
The assay is described as follows: TLR ligand screening: NF-κB activation (SEAP reporter) in HEK293 cells expressing TLR9. In kind it is cell-based. Conditions: one concentration: NTR001 10 uM, Inosine 100 uM; FIG. 2. Here is the method: as §1

Assay [6] relates to immune response to tetanus toxoid vaccine. The assay is described as follows: PNPi as adjuvant in tetanus toxoid vaccine efficacy study (mouse). In kind it is in vivo. Particulars: mice, p.o., ELISA. In general terms: In an ELISA, binding on a coated surface is turned into a signal by an enzyme label.
Assay [7] relates to L. monocytogenes (ATCC Strain35152, hemolytic substrain). The assay is described as follows: Mouse model of L. monocytogenes infection. Conditions: Balb/c mice infected i.v. with 1×10^6 CFU; 30 mg/kg PO or IP, 2 mg/kg drinking water; FIGS. 7 and 9.
Assay [8] deals with B16 tumors. The assay can be described thus: Syngeneic mouse melanoma model. In kind it is in vivo, C57BL/6 mice. On the procedure:
Method: Cancer cells were injected subcutaneously in right flank of each mouse, 1×10^4 cells in 0.1 ml PBS with 20% Matrigel. Treatment with the NTR001 was initiated on day 6 after injection of tumor cells. Tumor volume and survival were recorded every 3-4 days.

T2 sequence (O60603 21-784): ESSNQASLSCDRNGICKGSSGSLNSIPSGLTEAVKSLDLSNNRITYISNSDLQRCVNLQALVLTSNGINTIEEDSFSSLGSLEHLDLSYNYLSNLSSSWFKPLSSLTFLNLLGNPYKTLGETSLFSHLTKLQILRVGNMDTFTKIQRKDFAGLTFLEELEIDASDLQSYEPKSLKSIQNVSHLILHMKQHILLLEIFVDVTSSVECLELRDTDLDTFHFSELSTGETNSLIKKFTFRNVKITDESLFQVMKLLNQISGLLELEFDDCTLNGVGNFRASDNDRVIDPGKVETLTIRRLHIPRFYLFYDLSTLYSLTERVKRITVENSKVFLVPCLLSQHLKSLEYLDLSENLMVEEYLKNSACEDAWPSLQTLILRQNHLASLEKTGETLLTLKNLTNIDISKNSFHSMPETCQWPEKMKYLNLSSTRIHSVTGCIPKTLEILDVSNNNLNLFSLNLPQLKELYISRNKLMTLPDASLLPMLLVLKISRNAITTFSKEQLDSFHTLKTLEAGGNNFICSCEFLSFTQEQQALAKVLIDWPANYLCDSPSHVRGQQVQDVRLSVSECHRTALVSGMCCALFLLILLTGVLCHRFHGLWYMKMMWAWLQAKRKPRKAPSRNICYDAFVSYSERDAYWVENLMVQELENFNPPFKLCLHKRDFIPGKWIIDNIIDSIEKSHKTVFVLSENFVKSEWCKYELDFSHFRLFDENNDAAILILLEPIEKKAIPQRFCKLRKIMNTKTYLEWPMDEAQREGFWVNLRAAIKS
T3 sequence (O60602 21-858): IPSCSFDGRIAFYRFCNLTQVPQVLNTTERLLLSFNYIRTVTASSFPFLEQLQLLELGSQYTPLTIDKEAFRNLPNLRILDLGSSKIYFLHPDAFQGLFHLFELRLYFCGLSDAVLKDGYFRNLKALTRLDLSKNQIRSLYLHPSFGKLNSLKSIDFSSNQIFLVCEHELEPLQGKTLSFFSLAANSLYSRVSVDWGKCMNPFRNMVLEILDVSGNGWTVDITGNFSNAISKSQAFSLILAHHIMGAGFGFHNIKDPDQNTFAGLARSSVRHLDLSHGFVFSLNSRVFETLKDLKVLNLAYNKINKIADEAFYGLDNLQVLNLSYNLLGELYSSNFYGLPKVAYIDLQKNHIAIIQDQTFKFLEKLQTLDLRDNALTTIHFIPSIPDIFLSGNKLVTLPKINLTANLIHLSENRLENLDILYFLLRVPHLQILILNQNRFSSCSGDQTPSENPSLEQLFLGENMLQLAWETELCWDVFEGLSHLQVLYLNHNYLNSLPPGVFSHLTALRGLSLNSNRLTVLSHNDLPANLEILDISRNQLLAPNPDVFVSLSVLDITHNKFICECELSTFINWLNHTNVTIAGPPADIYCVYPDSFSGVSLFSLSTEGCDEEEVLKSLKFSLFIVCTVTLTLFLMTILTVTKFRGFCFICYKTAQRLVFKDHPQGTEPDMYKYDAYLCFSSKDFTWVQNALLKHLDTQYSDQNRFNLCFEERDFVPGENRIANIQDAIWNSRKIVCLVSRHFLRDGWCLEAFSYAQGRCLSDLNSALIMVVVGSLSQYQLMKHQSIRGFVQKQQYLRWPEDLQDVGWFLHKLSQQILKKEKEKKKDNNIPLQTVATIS
T1 sequence (O00206 24-839): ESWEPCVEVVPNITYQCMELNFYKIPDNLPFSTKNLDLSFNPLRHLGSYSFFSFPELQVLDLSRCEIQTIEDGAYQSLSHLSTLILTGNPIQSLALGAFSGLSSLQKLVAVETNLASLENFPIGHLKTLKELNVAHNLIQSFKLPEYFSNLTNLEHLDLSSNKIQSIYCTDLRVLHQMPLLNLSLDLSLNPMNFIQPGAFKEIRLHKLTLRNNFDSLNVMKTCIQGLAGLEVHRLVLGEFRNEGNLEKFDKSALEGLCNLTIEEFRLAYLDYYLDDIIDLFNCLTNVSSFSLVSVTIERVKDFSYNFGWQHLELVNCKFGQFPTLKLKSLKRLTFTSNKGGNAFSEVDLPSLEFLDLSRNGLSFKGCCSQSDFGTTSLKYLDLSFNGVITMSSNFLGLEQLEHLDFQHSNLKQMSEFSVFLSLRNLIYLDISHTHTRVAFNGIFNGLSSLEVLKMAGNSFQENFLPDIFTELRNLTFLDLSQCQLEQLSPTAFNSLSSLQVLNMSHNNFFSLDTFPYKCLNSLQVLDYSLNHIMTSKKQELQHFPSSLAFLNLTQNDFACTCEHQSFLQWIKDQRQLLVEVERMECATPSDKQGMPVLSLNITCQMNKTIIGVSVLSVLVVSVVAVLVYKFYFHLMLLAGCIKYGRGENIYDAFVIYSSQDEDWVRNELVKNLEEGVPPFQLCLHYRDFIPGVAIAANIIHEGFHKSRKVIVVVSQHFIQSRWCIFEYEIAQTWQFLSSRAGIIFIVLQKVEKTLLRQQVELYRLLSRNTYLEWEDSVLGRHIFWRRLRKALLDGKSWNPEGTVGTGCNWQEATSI
T1 sequence (Q9Y6Y9 17-160 limits assumed): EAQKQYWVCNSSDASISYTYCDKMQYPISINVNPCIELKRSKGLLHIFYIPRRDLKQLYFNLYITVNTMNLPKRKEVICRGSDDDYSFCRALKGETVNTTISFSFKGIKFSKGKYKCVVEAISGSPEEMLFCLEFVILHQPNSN

On to `OC[C@H]1O[C@@H](n2cnc3c(O)ncnc32)[C@H](O)[C@@H]1O` [Inosine], for which the “stimulatory effect on human TLR4” value in assay [1] is “do not exhibit a stimulatory effect”. The “stimulatory effect on human TLR2” value in assay [2] is “do not exhibit a stimulatory effect”. Also, in assay [3], the “stimulatory effect on human TLR5” value is “do not exhibit a stimulatory effect”. Moreover, in assay [4], the “stimulatory effect on human TLR8” value is “do not exhibit a stimulatory effect”. In assay [5], the “stimulatory effect on human TLR9” value is given as “do not exhibit a stimulatory effect”.
Turning to `O=c1[nH]cnc2c([C@@H]3N[C@H](CO)[C@@H](O)[C@H]3O)c[nH]c12` [NTR001, 7-[(2S,3S,4R,5R)-3,4-dihydroxy-5-(hydroxymethyl)-2-pyrrolidinyl]-1,5-dihydro-4H-pyrrolo [3,2-d]pyrimidin-4-one], the “serum tetanus toxoid antibody titers compared to the vehicle treated group” value in assay [6] (30 mg/kg (6 days of treatment) and 60 mg/kg (3 days of treatment), day 38, FIG. 3) is recorded as “significantly elevated”. Further, the “serum interferon-g compared to the vehicle treated group” value in assay [6] (high dose group 60 mg/kg, day 30, FIG. 4) is recorded as “elevated”. The weight loss entry in assay [7] was “significant decrease in weight loss”. For the same molecule, the “stimulatory effect on human TLR4” value in assay [1] is reported as “do not exhibit a stimulatory effect”. Also, the tumor volume entry in assay [8] (B16 tumors in C57BL/6 mice, treatment from day 6, FIG. 5) was “significant decrease”. In assay [8] (NTR001 as single agent (30 mg/kg PO week on/off; 5 mg/kg drinking water 28 days), FIG. 6), the survival is reported as 0-20%. The “stimulatory effect on human TLR2” value in assay [2] is “do not exhibit a stimulatory effect”. For the same molecule, in assay [3], the “stimulatory effect on human TLR5” value is given as “do not exhibit a stimulatory effect”. Moreover, the “stimulatory effect on human TLR8” value in assay [4] is on record as “do not exhibit a stimulatory effect”. The “stimulatory effect on human TLR9” value in assay [5] is recorded as “do not exhibit a stimulatory effect”.
